According to patent US8906925B2, “Pyrido[4,3-B]indoles containing rigid moieties” (Medivation Technologies, Inc., priority 2008, dated 2014):

Key:
[1] = molecular target: human recombinant dopamine D2S receptor (Homo sapiens, UniProt P14416); assay: Dopamine D2S [35S]GTPγS functional assay (SPA, CHO membranes); type: biochemical; conditions: read-out: D2S GTPgS % Inhibition
Procedure: To determine for agonist or antagonist activity of compounds of the invention in functional assays, human recombinant dopamine D2S receptor stably expressed in Chinese hamster ovary (CHO) cells (Gilliland S L and Alper R H. Naunyn-Schmiedeberg's Archives of Pharmacology. 361: 498, 2000) was used. Compounds of invention were pre-incubated with the membranes (0.05 mg/mL) and 3 µM GDP in modified HEPES buffer (20 mM HEPES, pH 7.4, 100 mM NaCl, 10 mM MgCl2, 1 mM DTT, 1 mM EDTA) for 20 min. and Scintillation Proximity Assay (SPA) beads were then added for another 60 min. at 30° C. The reaction was initiated by 0.3 nM [^35S]GTPγS for an additional 30 min. incubation period. […] Compounds were screened at […] or lower, using 0.4% DMSO as vehicle. Assay results are presented as the percent response of specific binding in Table 13.

Long-Evans rats = assay: 5-choice serial reaction time task (5CSRTT); type: in vivo, rat; conditions: 0.1, 0.3 and 1.0 mg/kg p.o.
Source text: Attention and impulsivity are characteristic of several disease states. The continuous performance test (CPT), used in humans, is capable of detecting attention deficts in a number of disorders, including attention deficit hyperactivity disorder, schizophrenia and mild cognitive impairment. The pre-clinical analogue of the CPT is the 5-choice serial reaction time task (5CSRTT). In this operant-based test, rats are required to be attentive and withhold responding while they monitor 5 apertures for the appearance of a brief stimulus light in one of the apertures. The brief illumination of the stimulus light in the 5CSRTT is analogous to the appearance of the “correct” letters in the CPT in humans. Upon observing the stimulus light, the rat must nose-poke in the corresponding aperture to receive a food reward. The 5CSRTT allows the measurement of similar behavioral responses as the CPT, including accuracy, speed of responding, impulsive and compulsive responding.
Thirteen male Long-Evans rats (275-300 g) were obtained from Harlan Laboratories, Indianapolis, Ind. At the time of testing for the current study, the rats were approximately 16-18 months old. Upon arrival, the rats were assigned unique identification numbers (tail marked). […]

C57Bl/6J mice = assay: Elevated plus maze (EPM) test; type: in vivo, mouse; conditions: 0.03, 0.1, and 1 mg/kg, oral
Source text: This study aimed to test the anxiolytic properties of Compound No. 90 using the elevated plus maze (EPM) test in C57Bl/6J mice.
Male C57Bl/6J mice from Jackson Laboratories (Bar Harbor, Me.) were used for the […]. Mice were received at 6-weeks of age. Upon receipt, mice were assigned unique identification numbers (tail marked) and were group housed with 4 mice/cage in OPTI mouse ventilated cages. All animals remained housed in groups of four during the remainder of the study. All mice were acclimated to the colony room for approximately 2 week prior to testing and were subsequently tested at an average age of 8 weeks of age. During the period of acclimation, mice and rats were examined on a regular basis, handled, and weighed to assure adequate health and suitability. Animals were maintained on a 12 h/12 h light/dark cycle. The room temperature was maintained between 20 and 23° C. with a relative humidity maintained between 30% and 70%. Chow and water were provided ad libitum for the duration of the study. In each test, animals were randomly assigned across treatment groups. […]
The elevated plus maze test assessed anxiety. […] The time spent, distance traveled and entries in each arm were automatically recorded by the computer. […]
Data were analyzed using analysis of variance (ANOVA) followed by Fisher's LSD post hoc analysis when appropriate. […]

Chain of human recombinant dopamine D2S receptor (P14416 1-414 isoform P14416-2): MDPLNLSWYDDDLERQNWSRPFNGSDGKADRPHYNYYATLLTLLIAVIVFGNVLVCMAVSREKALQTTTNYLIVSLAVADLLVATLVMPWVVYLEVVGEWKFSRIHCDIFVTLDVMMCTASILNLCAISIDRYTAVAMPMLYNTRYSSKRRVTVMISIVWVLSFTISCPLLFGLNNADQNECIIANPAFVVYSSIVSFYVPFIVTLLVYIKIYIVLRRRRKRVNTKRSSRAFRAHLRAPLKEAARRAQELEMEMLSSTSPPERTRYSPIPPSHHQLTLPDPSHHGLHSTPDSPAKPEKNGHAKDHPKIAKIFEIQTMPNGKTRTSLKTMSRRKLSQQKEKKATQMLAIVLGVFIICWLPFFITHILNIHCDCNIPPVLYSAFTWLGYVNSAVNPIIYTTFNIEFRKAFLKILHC

SMILES | inhibition at 0.001 µM ([1]; conc. 1 nM) | inhibition at 0.003 µM ([1]; conc. 3 nM) | inhibition at 0.01 µM ([1]; conc. 10 nM) | inhibition at 0.03 µM ([1]; conc. 30 nM) | inhibition at 0.1 µM ([1]; conc. 100 nM) | impulsivity-like and perserverative-like behavior (Long-Evans rats) | anxiolytic-like effect in the EPM test compared to vehicle (C57Bl/6J mice)
C/C(=C\n1c2c(c3cc(Cl)ccc31)CN(C)CC2)c1ccc(F)cc1 [Compound 83, (E)-8-chloro-5-(2-(4-fluorophenyl)prop-1-enyl)-2,3,4,5-tetrahydro-2-methyl-1H-pyrido[4,3-b]indole] | 15% | 45% | 56% | 74% | 91% | – | –
C/C(=C\n1c2c(c3cc(Cl)ccc31)CN(C)CC2)c1ccncc1 [Compound 90, (E)-8-chloro-2,3,4,5-tetrahydro-2-methyl-5-(2-(pyridin-4-yl)prop-1-enyl)-1H-pyrido[4,3-b]indole] | – | – | – | – | – | reduces | did not exert any anxiolytic-like effect
